Assay results taken from US8614333B2, “Acenaphtho heterocyclic compound and application thereof” (Dalian University of Technology, priority 2010, dated 2013).

Legend:
Bcl-2 = assay: Western blotting, semiquantitative analysis of Bcl-2 protein bands; format: cell-based; settings: control = 1, tumor cells
Procedure: (§1) The interest protein was detected by the corresponding antibody. The expression of the interest protein in the cells was detected by horseradish peroxidase-labeled secondary antibodies in combination with ECL coloration method. […] The concentration of the protein bands in the Western images were carried out semiquantitative analysis and normalization treatment with KODAK Gel Logic 1500 imaging system software.

MCF-7 cells = assay: Cytotoxicity by MTT, cells without plasmid transfection; format: cell-based; settings: Homo sapiens, MCF7; MCF-7, MTT, 48 hours; read-out: IC50 value in untransfected cells
Method in brief: (§2)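 MCF-7 cells transfected with 3 μg BAX/BAK interfering plasmid by calcium phosphate, knockdown checked by Western; untransfected cells run in parallel. Cells treated with a compound concentration gradient for 48 hours; viability by MTT, IC50 derived.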

Mcl-1 protein = Mcl-1 protein (Homo sapiens, UniProt Q07820); assay: Fluorescence polarization assay, competition with FAM-Bid peptide for Mcl-1; settings: FAM-Bid 5 nM, 4 hours of incubation, read-out: Mcl-1 binding constants
Procedure: (§3) A Bid BH3 peptide (amino acids: 79-99: […]) having 21 amino acids was synthesized and marked with 6-carboxyfluorescein N-succinimidyl ester (FAM) as fluorescent tag (FAM-Bid) at the N-terminal. The reaction system used in the competitive binding experiment was GST-Bcl-2 protein (40 nM) or Mcl-1 protein, which was dissolved in the reaction buffer (100 mM K3PO4, pH 7.5; 100 μg/ml bovine γ albumin; 0.02% sodium azide) together with FAM-Bid polypeptide (5 nM). In a 96-well plate, 100 µL of the reaction system was added into each well. Then 1 μL different concentration of compound 13 mother solution to be detected dissolved in DMSO was added there into until the final concentration met the experimental design requirements. Meanwhile, two control groups were established, one with the reaction system only containing Bcl-2 or Mcl-1 and FAM-Bid (equivalent to 0% inhibition rate), the other with the reaction system only containing FAM-Bid peptide. After 4 hours of incubation, the 96-well plate was detected by enzyme-labelled meter. The fluorescent polarization value (mP) was tested at […]. Ki value was deduced according to calculation formula.
(§4) The BH3 analogous degrees of other 12 compounds were detected by using the experimental method as described above.

[1] = biological target: T1, interaction between Bcl-2 and Bax (Homo sapiens, UniProt P10415); assay: Intracellular FRET, Bcl-2-CFP/Bax-YFP in Hela cells; format: cell-based; settings: for Time (time period after which the interaction between Bcl-2 and Bax was interfered): at the concentration given
T1 construct: expressed in transfected cells; host or cells: Hela cells
Method in brief: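 Hela cells transfected with Bcl-2-CFP and/or Bax-YFP plasmids, then treated with compound in DMSO at 2, 5, 10 and 15 μM for 24 h, or at 40 μM for 3, 6 and 24 h. FRET taken as the 527/475 nm emission ratio at 433 nm excitation, with singly transfected controls set to 1.0. Viability checked by MTT.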

GST-Bcl-2 protein = GST-Bcl-2 protein (Homo sapiens, UniProt P10415); assay: Fluorescence polarization assay, competition with FAM-Bid peptide for Bcl-2; settings: GST-Bcl-2 40 nM, FAM-Bid 5 nM, 4 hours of incubation, read-out: Bcl-2 binding constants
Procedure: as §3, §4

Mcl-1 = assay: Western blotting, semiquantitative analysis of Mcl-1 protein bands; format: cell-based; settings: control = 1, tumor cells
Procedure: as §1

[2] = system: MCF-7 cells transfected with BAX/BAK interfering plasmid; assay: Cytotoxicity by MTT, cells transfected with BAX/BAK interfering plasmid; format: cell-based; settings: Homo sapiens, MCF7; MCF-7 with BAX/BAK interfering plasmid, MTT, 48 hours
Method in brief: as §2

[3] = system: BAX shift towards the chondriosome; assay: Co-localization between Bax protein and chondriosome, Bax-YFP in MCF-7 cells; format: cell-based; settings: for Doses (concentration at which the compound drove the BAX to shift towards the chondriosome): Bax-YFP/Mito Tracker Red; for Time (time period after which BAX shifted towards the chondriosome): at the concentration given
Method in brief: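 MCF-7 cells transfected with Bax-YFP plasmid; 24 h later treated with 10 μM compound for 6 h, then stained 10 min with 50 nM MitoTracker Red CMXRos. Dual-channel laser confocal imaging; Bax mitochondrial localization read as green/red overlap (orange).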

T1 sequence (P10415 whole entry): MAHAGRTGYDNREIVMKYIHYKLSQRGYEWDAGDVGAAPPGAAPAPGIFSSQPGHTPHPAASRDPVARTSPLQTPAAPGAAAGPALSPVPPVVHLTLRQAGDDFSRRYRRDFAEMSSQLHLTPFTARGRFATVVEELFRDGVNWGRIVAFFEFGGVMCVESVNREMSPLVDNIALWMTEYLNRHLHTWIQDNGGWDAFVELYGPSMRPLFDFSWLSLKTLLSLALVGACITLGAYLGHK
Sequence of GST-Bcl-2 protein (P10415 whole entry): as above
Sequence of Mcl-1 protein (Q07820 whole entry, species assumed): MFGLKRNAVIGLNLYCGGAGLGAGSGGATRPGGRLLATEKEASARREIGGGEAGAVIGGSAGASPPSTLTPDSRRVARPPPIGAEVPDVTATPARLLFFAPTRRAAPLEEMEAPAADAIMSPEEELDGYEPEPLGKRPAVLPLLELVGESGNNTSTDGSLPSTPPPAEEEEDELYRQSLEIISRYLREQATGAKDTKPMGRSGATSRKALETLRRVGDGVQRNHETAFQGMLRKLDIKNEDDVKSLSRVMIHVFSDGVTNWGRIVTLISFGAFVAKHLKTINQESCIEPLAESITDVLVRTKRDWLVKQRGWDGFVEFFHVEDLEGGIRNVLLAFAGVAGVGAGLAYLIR

CC(C)c1ccc(Sc2ccc3c4c(cccc24)C2=NC(=O)C(C#N)=C23)cc1 [Compound 20, 3-(4-Isopropyl-phenylsulfanyl)-8-oxo-8H-acenaphtho[1,2-b]pyrrole-9-carbonitrile]
concentration of the protein bands (semiquantitative, normalized), Bcl-2 (Bcl-2; 6 h): 0.99
concentration of the protein bands (semiquantitative, normalized), Bcl-2 (Bcl-2; 12 h): 0.99
concentration of the protein bands (semiquantitative, normalized), Bcl-2 (Bcl-2; 18 h): 0.50
concentration of the protein bands (semiquantitative, normalized), Bcl-2 (Bcl-2; 24 h): 0.23
IC50 (MCF-7 cells): 2.1 µM
Ki (Mcl-1 protein): 0.057 µM
Doses (concentration at which the compound interfered with the interaction between Bcl-2 and Bax) [1]: 0.2 µM
Time (time period after which the interaction between Bcl-2 and Bax was interfered) [1]: 2 h
Ki (GST-Bcl-2 protein): 0.023 µM
concentration of the protein bands (semiquantitative, normalized), Mcl-1 (Mcl-1; 2 h): 0.60
concentration of the protein bands (semiquantitative, normalized), Mcl-1 (Mcl-1; 6 h): 0.29
IC50 [2]: > 50 µM
Doses (concentration at which the compound drove the BAX to shift towards the chondriosome) [3]: 5.0 µM
Time (time period after which BAX shifted towards the chondriosome) [3]: 3 h

CC(C)c1ccc(Oc2ccc3c4c(cccc24)C2=NC(=O)C(C#N)=C23)cc1 [Compound 17, 3-(4-Isopropyl-phenoxy)-8-oxo-8H-acenaphtho[1,2-b]pyrrole-9-carbonitrile]
concentration of the protein bands (semiquantitative, normalized), Bcl-2 (Bcl-2; 6 h): 0.99
concentration of the protein bands (semiquantitative, normalized), Bcl-2 (Bcl-2; 12 h): 0.99
concentration of the protein bands (semiquantitative, normalized), Bcl-2 (Bcl-2; 18 h): 0.58
concentration of the protein bands (semiquantitative, normalized), Bcl-2 (Bcl-2; 24 h): 0.11
IC50 (MCF-7 cells): 2 µM
Ki (Mcl-1 protein): 0.085 µM
Doses (concentration at which the compound interfered with the interaction between Bcl-2 and Bax) [1]: 0.1 µM
Time (time period after which the interaction between Bcl-2 and Bax was interfered) [1]: 2 h
Ki (GST-Bcl-2 protein): 0.02 µM
concentration of the protein bands (semiquantitative, normalized), Mcl-1 (Mcl-1; 2 h): 0.65
concentration of the protein bands (semiquantitative, normalized), Mcl-1 (Mcl-1; 6 h): 0.37
IC50 [2]: > 50 µM
Doses (concentration at which the compound drove the BAX to shift towards the chondriosome) [3]: 1.0 µM
Time (time period after which BAX shifted towards the chondriosome) [3]: 1 h

CC(C)c1ccc(Sc2ccc3cccc4c3c2C2=NC(=O)C(C#N)=C24)cc1 [Compound 22, 6-(4-Isopropyl-phenylsulfanyl)-8-oxo-8H-acenaphtho[1,2-b]pyrrole-9-carbonitrile]
concentration of the protein bands (semiquantitative, normalized), Bcl-2 (Bcl-2; 6 h): 0.99
concentration of the protein bands (semiquantitative, normalized), Bcl-2 (Bcl-2; 12 h): 0.99
concentration of the protein bands (semiquantitative, normalized), Bcl-2 (Bcl-2; 18 h): 0.60
concentration of the protein bands (semiquantitative, normalized), Bcl-2 (Bcl-2; 24 h): 0.37
IC50 (MCF-7 cells): 1.2 µM
Ki (Mcl-1 protein): 0.085 µM
Doses (concentration at which the compound interfered with the interaction between Bcl-2 and Bax) [1]: 0.5 µM
Time (time period after which the interaction between Bcl-2 and Bax was interfered) [1]: 2 h
Ki (GST-Bcl-2 protein): 0.009 µM
concentration of the protein bands (semiquantitative, normalized), Mcl-1 (Mcl-1; 2 h): 0.68
concentration of the protein bands (semiquantitative, normalized), Mcl-1 (Mcl-1; 6 h): 0.49
IC50 [2]: > 50 µM
Doses (concentration at which the compound drove the BAX to shift towards the chondriosome) [3]: 5.0 µM
Time (time period after which BAX shifted towards the chondriosome) [3]: 3 h

CCC(C)c1ccc(Oc2ccc3c4c(cccc24)C2=NC(=O)C(C#N)=C23)cc1 (stereo not drawn) [Compound 13, 3-(4-sec-Butyl-phenoxy)-8-oxo-8H-acenaphtho[1,2-b]pyrrole-9-carbonitrile]
concentration of the protein bands (semiquantitative, normalized), Bcl-2 (Bcl-2; 6 h): 0.99
concentration of the protein bands (semiquantitative, normalized), Bcl-2 (Bcl-2; 12 h): 0.99
concentration of the protein bands (semiquantitative, normalized), Bcl-2 (Bcl-2; 18 h): 0.42
concentration of the protein bands (semiquantitative, normalized), Bcl-2 (Bcl-2; 24 h): 0.14
IC50 (MCF-7 cells): 7.5 µM
melting point: 278 to 279 °C
Ki (Mcl-1 protein): 0.024 µM
Doses (concentration at which the compound interfered with the interaction between Bcl-2 and Bax) [1]: 0.5 µM
Time (time period after which the interaction between Bcl-2 and Bax was interfered) [1]: 4 h
Ki (GST-Bcl-2 protein): 0.158 µM
concentration of the protein bands (semiquantitative, normalized), Mcl-1 (Mcl-1; 2 h): 0.79
concentration of the protein bands (semiquantitative, normalized), Mcl-1 (Mcl-1; 6 h): 0.29
IC50 [2]: > 50 µM
Doses (concentration at which the compound drove the BAX to shift towards the chondriosome) [3]: 5.0 µM
Time (time period after which BAX shifted towards the chondriosome) [3]: 4 h

CC(C)Cc1ccc(Sc2ccc3c4c(cccc24)C2=NC(=O)C(C#N)=C23)cc1 [Compound 18, 3-(4-Isobutyl-phenylsulfanyl)-8-oxo-8H-acenaphtho[1,2-b]pyrrole-9-carbonitrile]
concentration of the protein bands (semiquantitative, normalized), Bcl-2 (Bcl-2; 6 h): 0.99
concentration of the protein bands (semiquantitative, normalized), Bcl-2 (Bcl-2; 12 h): 0.99
concentration of the protein bands (semiquantitative, normalized), Bcl-2 (Bcl-2; 18 h): 0.36
concentration of the protein bands (semiquantitative, normalized), Bcl-2 (Bcl-2; 24 h): 0.10
IC50 (MCF-7 cells): 6.8 µM
Ki (Mcl-1 protein): 0.008 µM
Doses (concentration at which the compound interfered with the interaction between Bcl-2 and Bax) [1]: 0.5 µM
Time (time period after which the interaction between Bcl-2 and Bax was interfered) [1]: 4 h
Ki (GST-Bcl-2 protein): 0.12 µM
concentration of the protein bands (semiquantitative, normalized), Mcl-1 (Mcl-1; 2 h): 0.66
concentration of the protein bands (semiquantitative, normalized), Mcl-1 (Mcl-1; 6 h): 0.39
IC50 [2]: > 50 µM
Doses (concentration at which the compound drove the BAX to shift towards the chondriosome) [3]: 5.0 µM
Time (time period after which BAX shifted towards the chondriosome) [3]: 4 h

CC(C)Cc1ccc(Oc2ccc3c4c(cccc24)C2=NC(=O)C(C#N)=C23)cc1 [Compound 15, 3-(4-Isobutyl-phenoxy)-8-oxo-8H-acenaphtho[1,2-b]pyrrole-9-carbonitrile]
concentration of the protein bands (semiquantitative, normalized), Bcl-2 (Bcl-2; 6 h): 0.99
concentration of the protein bands (semiquantitative, normalized), Bcl-2 (Bcl-2; 12 h): 0.99
concentration of the protein bands (semiquantitative, normalized), Bcl-2 (Bcl-2; 18 h): 0.39
concentration of the protein bands (semiquantitative, normalized), Bcl-2 (Bcl-2; 24 h): 0.12
IC50 (MCF-7 cells): 7.1 µM
Ki (Mcl-1 protein): 0.012 µM
Doses (concentration at which the compound interfered with the interaction between Bcl-2 and Bax) [1]: 0.5 µM
Time (time period after which the interaction between Bcl-2 and Bax was interfered) [1]: 4 h
Ki (GST-Bcl-2 protein): 0.14 µM
concentration of the protein bands (semiquantitative, normalized), Mcl-1 (Mcl-1; 2 h): 0.69
concentration of the protein bands (semiquantitative, normalized), Mcl-1 (Mcl-1; 6 h): 0.42
IC50 [2]: > 50 µM
Doses (concentration at which the compound drove the BAX to shift towards the chondriosome) [3]: 5.0 µM
Time (time period after which BAX shifted towards the chondriosome) [3]: 3 h

CCC(C)c1ccc(Sc2ccc3c4c(cccc24)C2=NC(=O)C(C#N)=C23)cc1 (stereo not drawn) [Compound 21, 3-(4-sec-Butyl-phenylsulfanyl)-8-oxo-8H-acenaphtho[1,2-b]pyrrole-9-carbonitrile]
concentration of the protein bands (semiquantitative, normalized), Bcl-2 (Bcl-2; 6 h): 0.99
concentration of the protein bands (semiquantitative, normalized), Bcl-2 (Bcl-2; 12 h): 0.99
concentration of the protein bands (semiquantitative, normalized), Bcl-2 (Bcl-2; 18 h): 0.49
concentration of the protein bands (semiquantitative, normalized), Bcl-2 (Bcl-2; 24 h): 0.18
IC50 (MCF-7 cells): 1.5 µM
Ki (Mcl-1 protein): 0.065 µM
Doses (concentration at which the compound interfered with the interaction between Bcl-2 and Bax) [1]: 0.2 µM
Time (time period after which the interaction between Bcl-2 and Bax was interfered) [1]: 2 h
Ki (GST-Bcl-2 protein): 0.012 µM
concentration of the protein bands (semiquantitative, normalized), Mcl-1 (Mcl-1; 2 h): 0.59
concentration of the protein bands (semiquantitative, normalized), Mcl-1 (Mcl-1; 6 h): 0.28
IC50 [2]: > 50 µM
Doses (concentration at which the compound drove the BAX to shift towards the chondriosome) [3]: 2.0 µM
Time (time period after which BAX shifted towards the chondriosome) [3]: 2 h
